Experimental data: US9924714B2, “Impregnatable matrix of plant, animal or synthetic origin or mixtures of same, containing a uniformly distributed antimicrobial compound, method for impregnating said matrix with a compound, and use thereof in the production of antimicrobial elements” (COMPAÑIA MINERA SAN GERONIMO, priority 2013, dated 2018)
“And” between values parts separate entries of the source, which are not always exact repeats. Equal entries are not always repeated.

What was measured:
Type in all cases: cell-based
[1] = system: Enterobacter aerogenes ATCC13048; experiment: Disc growth inhibition halo test (Example 2)
[2] = system: Streptococcus pyogenes ATCC2367; experiment: Disc growth inhibition halo test (Example 2)
[3] = system: Pseudomonas aeruginosa PAOI; experiment: Disc growth inhibition halo test (Example 2)
[4] = system: Staphylococcus aureus ATCC25923; experiment: Disc growth inhibition halo test (Example 2)
[5] = system: Klebsiella pneumoniae ATCC4352; experiment: Disc growth inhibition halo test (Example 2)
[6] = system: Streptococcus pneumoniae ATCC14325; experiment: Disc growth inhibition halo test (Example 2)
[7] = system: Acinetobacter baumanii UDP456; experiment: Disc growth inhibition halo test (Example 2)
[8] = system: Staphylococcus epidermidis ATCC25923; experiment: Disc growth inhibition halo test (Example 2)
[9] = system: Citrobacter freundii ISP1949/99; experiment: Disc growth inhibition halo test (Example 2)
[10] = system: Enterococcus faecalis ATCC29212; experiment: Disc growth inhibition halo test (Example 2)
[11] = system: Enterococcus faecium ISP133/04; experiment: Disc growth inhibition halo test (Example 2)
12 bacterial strains = experiment: Antibacterial activity of four copper compounds, summary (Example 2); settings: discs 200-800 μg, summary in words
[12] = system: Escherichia coli ATCC25922; experiment: Disc growth inhibition halo test (Example 2)
[13] = system: Klebsiella pneumoniae ATCC4352; experiment: Thick cloth growth inhibition test (Example 6); settings: commercial disc 30 μg Km; in mm
Description: (§1) This example determined qualitatively the antibacterial effect of the copper solution proposed, embedded in a matrix of thick fabric which was prepared following the procedure of the present invention. Pieces of cloth of about 2×2 cm were prepared and embedded with the product and then were deposited on a background lawn of 12 different bacteria strains.
(§2) In order to do this, it was prepared a bacterial culture of 16 hours, with the strain of interest, it was performed a 1/30 dilution of the culture with fresh medium and incubated under stirring at 37° C. until reaching the exponential growth phase (D0600 nm 0.4-0.5). It was taken an aliquot of 100 μL of the culture in exponential phase, and deposited in 4 mL of Mueller-Hinton soft agar at 0.8% (previously melted and stabilized at 50° C.). The mixture was deposited on a Petri dish with 20 mL of Mueller-Hinton agar base. Once the agar was gelled, each of the discs with different amounts of the test compound were deposited on the background lawn, and incubated at 37° C. during 48 hours.
(§3) Experiments were performed in triplicate in independently, using as negative control discs with the solvent DMSO alone and cloth without the product of study. As positive control were used commercial discs used with 30 μg of antibiotic Kanamycin (Km).

[14] = system: Enterococcus faecium ISP133/04; experiment: Thick cloth growth inhibition test (Example 6); settings: commercial disc 30 μg Km; in mm
Description: as §1, §2, §3

[15] = system: Staphylococcus aureus ATCC25923; experiment: Thick cloth growth inhibition test (Example 6); settings: commercial disc 30 μg Km; in mm
Description: as §1, §2, §3

[16] = system: Streptococcus pneumoniae ATCC14325; experiment: Thick cloth growth inhibition test (Example 6); settings: commercial disc 30 μg Km; in mm
Description: as §1, §2, §3

[17] = system: Enterobacter aerogenes ATCC13048; experiment: Thick cloth growth inhibition test (Example 6); settings: commercial disc 30 μg Km; in mm
Description: as §1, §2, §3

[18] = system: Streptococcus pyogenes ATCC2367; experiment: Thick cloth growth inhibition test (Example 6); settings: commercial disc 30 μg Km; in mm
Description: as §1, §2, §3

[19] = system: Escherichia coli ATCC25922; experiment: Thick cloth growth inhibition test (Example 6); settings: commercial disc 30 μg Km; in mm
Description: as §1, §2, §3

[20] = system: Citrobacter freundii ISP1949/99; experiment: Thick cloth growth inhibition test (Example 6); settings: commercial disc 30 μg Km
Description: as §1, §2, §3

[21] = system: Acinetobacter baumanii UPP4 56; experiment: Thick cloth growth inhibition test (Example 6); settings: commercial disc 30 μg Km
Description: as §1, §2, §3

[22] = system: Enterococcus faecalis ATCC29212; experiment: Thick cloth growth inhibition test (Example 6); settings: commercial disc 30 μg Km; in mm
Description: as §1, §2, §3

[23] = system: Staphylococcus epidermidis ATCC2S923; experiment: Thick cloth growth inhibition test (Example 6); settings: commercial disc 30 μg Km; in mm
Description: as §1, §2, §3

[24] = system: Pseudomonas aeruginosa PAOI; experiment: Thick cloth growth inhibition test (Example 6); settings: commercial disc 30 μg Km; in mm
Description: as §1, §2, §3

[25] = system: Staphylococcus aureus ATCC25923; experiment: Inhibition halos of fabrics after washing (Example 7); settings: commercial disc 30 μg Km; in mm
Description: (§4) This example established qualitatively the antibacterial activity of matrixes in thin fabric (Fabric 1) and thick fabric (Fabric 2) embedded with the product, following the procedure described herein, and after subjected to washing. In order to do this, there were taken pieces of 2×2 cm from both fabrics, cut and washed for 2 hours with stirring using commercial laundry detergent. Subsequently, the washed fabric pieces which have the new product are dried in an oven at 40° C. for 3 hours and placed on the background lawn. In order to generate the background lawn, it was prepared a bacterial culture of 16 hours, with the strain of interest, it was performed a 1/30 dilution of the culture with fresh medium and incubated under stirring at 37° C. until reaching the exponential growth phase (D0600 nm 0.4-0.5). It was taken an aliquot of 100 μL of the culture in exponential phase, and deposited in 4 mL of Mueller-Hinton soft agar at 0.8% (previously melted and stabilized at 50° C.). The mature was deposited on a Petri dish with 20 mL of Mueller-Hinton agar base. […]
(§5) Experiments were performed in triplicate and in three independent events. From the treated plates, it was measured the zone of inhibition generated by each control and fabrics embedded with the proposed compound, which is summarized in Table 7.

[26] = system: Escherichia coli ATCC25922; experiment: as above; settings: commercial disc 30 μg Km; in mm
Description: as §4, §5

[Cl-].[Cu+2].[Cu+2].[OH-].[OH-].[OH-] [copper oxychloride compound (II), copper oxychloride (II)]
Growth inhibition zone ([1]; 200 μg on 5 mm disc): 7.3 ± 1.5 mm | Growth inhibition zone ([1]; 400 μg on 5 mm disc): 3.7 ± 1.5 mm | Growth inhibition zone ([1]; 600 μg on 5 mm disc): 9.7 ± 0.6 mm | Growth inhibition zone ([1]; 800 μg on 5 mm disc): 9.7 ± 1.5 mm | Growth inhibition zone ([2]; 200 μg on 5 mm disc): 5.0 ± 1.0 mm | Growth inhibition zone ([2]; 400 μg on 5 mm disc): 6.0 ± 1.0 mm | Growth inhibition zone ([2]; 600 μg on 5 mm disc): 7.0 ± 1.2 mm | Growth inhibition zone ([2]; 800 μg on 5 mm disc): 8.0 ± 1.4 mm | Growth inhibition zone ([3]; 200 μg on 5 mm disc): 6.3 ± 1.5 mm | Growth inhibition zone ([3]; 400 μg on 5 mm disc): 6.7 ± 1.2 mm | Growth inhibition zone ([3]; 600 μg on 5 mm disc): 8.3 ± 0.6 mm | Growth inhibition zone ([3]; 800 μg on 5 mm disc): 3.3 ± 1.7 mm | Growth inhibition zone ([4]; 200 μg on 5 mm disc): 6.0 ± 1.0 mm | Growth inhibition zone ([4]; 400 μg on 5 mm disc): 10.3 ± 0.6 mm | Growth inhibition zone ([4]; 600 μg on 5 mm disc): 11.7 ± 0.6 mm | Growth inhibition zone ([4]; 800 μg on 5 mm disc): 14.0 ± 1.0 mm | Growth inhibition zone ([5]; 200 μg on 5 mm disc): 7.3 ± 0.6 mm | Growth inhibition zone ([5]; 400 μg on 5 mm disc): 8.7 ± 0.6 mm | Growth inhibition zone ([5]; 600 μg on 5 mm disc): 9.7 ± 0.6 mm | Growth inhibition zone ([5]; 800 μg on 5 mm disc): 10.0 mm | Growth inhibition zone ([6]; 200 μg on 5 mm disc): 5.0 ± 1.0 mm | Growth inhibition zone ([6]; 400 μg on 5 mm disc): 8.0 ± 0.7 mm | Growth inhibition zone ([6]; 600 μg on 5 mm disc): 9.0 ± 1.0 mm | Growth inhibition zone ([6]; 800 μg on 5 mm disc): 11.0 ± 1.2 mm | Growth inhibition zone ([7]; 200 μg on 5 mm disc): 11.7 ± 0.6 mm | Growth inhibition zone ([7]; 400 μg on 5 mm disc): 15.7 ± 0.6 mm | Growth inhibition zone ([7]; 600 μg on 5 mm disc): 17.0 ± 1.0 mm | Growth inhibition zone ([7]; 800 μg on 5 mm disc): 19.7 ± 0.6 mm | Growth inhibition zone ([8]; 200 μg on 5 mm disc): 12.0 ± 0.6 mm | Growth inhibition zone ([8]; 400 μg on 5 mm disc): 14.3 ± 0.6 mm | Growth inhibition zone ([8]; 600 μg on 5 mm disc): 13.7 ± 1.5 mm | Growth inhibition zone ([8]; 800 μg on 5 mm disc): 14.6 ± 0.6 mm | Growth inhibition zone ([9]; 200 μg on 5 mm disc): 8.0 ± 1.0 mm | Growth inhibition zone ([9]; 400 μg on 5 mm disc): 10.7 ± 1.5 mm | Growth inhibition zone ([9]; 600 μg on 5 mm disc): 11.3 ± 0.6 mm | Growth inhibition zone ([9]; 800 μg on 5 mm disc): 11.3 ± 1.5 mm | Growth inhibition zone ([10]; 200 μg on 5 mm disc): 6.0 ± 1.0 mm | Growth inhibition zone ([10]; 400 μg on 5 mm disc): 6.0 ± 1.0 mm | Growth inhibition zone ([10]; 600 μg on 5 mm disc): 6.0 ± 1.0 mm | Growth inhibition zone ([10]; 800 μg on 5 mm disc): 6.0 ± 1.0 mm | Growth inhibition zone ([11]; 200 μg on 5 mm disc): 6.0 ± 1.0 mm | Growth inhibition zone ([11]; 400 μg on 5 mm disc): 6.0 ± 1.0 mm | Growth inhibition zone ([11]; 600 μg on 5 mm disc): 6.0 ± 1.0 mm | Growth inhibition zone ([11]; 800 μg on 5 mm disc): 6.0 ± 1.0 mm | antibacterial activity (12 bacterial strains): antibacterial activity against Staphylococcus aureus, Staphylococcus epidermidis, Streptococcus pyogenes, Escherichia coli and Acinetobacter baumannii | Growth inhibition zone ([12]; 200 μg on 5 mm disc): 13.3 ± 1.4 mm | Growth inhibition zone ([12]; 400 μg on 5 mm disc): 13.0 ± 0.7 mm | Growth inhibition zone ([12]; 600 μg on 5 mm disc): 15.0 ± 0.7 mm | Growth inhibition zone ([12]; 800 μg on 5 mm disc): 13.3 ± 0.7 mm

NC[C@H]1O[C@H](O[C@H]2[C@H](O)[C@@H](O[C@H]3O[C@H](CO)[C@@H](O)[C@H](N)[C@H]3O)[C@H](N)C[C@@H]2N)[C@H](O)[C@@H](O)[C@@H]1O [Km, Kanamycin]
Growth inhibition zone ([1]; commercial disc 30 μg Km): 14 + 0.5 mm and 15 ± 0.4 mm and 16 ± 0.4 mm and 19.0 ± 0.7 mm | Growth inhibition zone ([2]; commercial disc 30 μg Km): 5 mm and 5.0 mm | Growth inhibition zone ([3]; commercial disc 30 μg Km): 7 ± 1.0 mm and 9 ± 0.7 mm and 7 + 0.7 mm and 7.0 ± 1.4 mm | Growth inhibition zone ([4]; commercial disc 30 μg Km): 21 ± 2 mm and 20 ± 0.8 mm and 15 ± 0.5 mm and 19.0 mm | Growth inhibition zone ([6]; commercial disc 30 μg Km): 15 ± 0.8 mm and 12.5 ± 1.2 mm and 11 ± 1 mm and 11.5 ± 0.8 mm | Growth inhibition zone ([8]; commercial disc 30 μg Km): 16 + 0.5 mm and 14 + 0.7 mm and 18 ± 0.7 mm and 18.5 ± 3.5 mm | Growth inhibition zone ([9]; commercial disc 30 μg Km): 19 ± 0.3 mm and 12 ± 0.5 mm and 15 ± 0.5 mm and 19.0 ± 0.2 mm | Growth inhibition zone ([10]; commercial disc 30 μg Km): 10 mm and 15 + 0.6 mm and 15 ± 0.6 mm and 10.5 ± 0.2 mm | Growth inhibition zone ([11]; commercial disc 30 μg Km): 12.5 ± 1.2 mm and 9 ± 0.7 mm and 11.0 mm | Growth inhibition zone [13]: 18.0 ± 1.0 | Growth inhibition zone [14]: 11.0 ± 0.8 | Growth inhibition zone [15]: 18.0 ± 0.5 | Growth inhibition zone [16]: 10.0 ± 0.2 | Growth inhibition zone [17]: 12.0 ± 0.5 | Growth inhibition zone [18]: 6.0 ± 1.0 | Growth inhibition zone [19]: 19.0 ± 0.5 | Growth inhibition zone [20]: 17.0 ± 0.3 | Growth inhibition zone [21]: 5 mm | Growth inhibition zone [22]: 14.0 ± 1.0 | Growth inhibition zone [23]: 24.0 ± 1.0 | Growth inhibition zone [24]: 7.0 ± 0.5 | Growth inhibition zone ([12]; commercial disc 30 μg Km): 18 ± 1.8 mm and 15 ± 0.2 mm and 18 ± 0.7 mm and 20.0 ± 0.7 mm | Growth inhibition zone [25]: 18.0 ± 1.4 | Growth inhibition zone [26]: 20.6 ± 0.6
